Experimental data as given in patent US20050159352A1, “Use of monocarboxylate transporter protein for thyroid hormone transport” (priority 2002, published 2005).
Read-outs that look alike come from different tables or passages of the source.

Experiments:
[1] = target: T1, MCT8 (Rattus norvegicus, UniProt Q8K1P8, G227D/I169T/S199P/T171I); assay: Transport (uptake) of radioactive ligands by MCT8 expressed in X. laevis oocytes; assay type: cell-based; set-up: the stop codon of MCT8 was removed by performing PCR using the same sense primer as above; expressed in transfected cells; host or cells: Xenopus laevis oocytes injected with cRNA transcribed from pGEM-HeJuel; details: 0.23 ng MCT8 cRNA injected; 10 nM ligand, 2 min, 25 C
T1 sequence (Q8K1P8 whole entry I169T/T171I/S199P/G227D): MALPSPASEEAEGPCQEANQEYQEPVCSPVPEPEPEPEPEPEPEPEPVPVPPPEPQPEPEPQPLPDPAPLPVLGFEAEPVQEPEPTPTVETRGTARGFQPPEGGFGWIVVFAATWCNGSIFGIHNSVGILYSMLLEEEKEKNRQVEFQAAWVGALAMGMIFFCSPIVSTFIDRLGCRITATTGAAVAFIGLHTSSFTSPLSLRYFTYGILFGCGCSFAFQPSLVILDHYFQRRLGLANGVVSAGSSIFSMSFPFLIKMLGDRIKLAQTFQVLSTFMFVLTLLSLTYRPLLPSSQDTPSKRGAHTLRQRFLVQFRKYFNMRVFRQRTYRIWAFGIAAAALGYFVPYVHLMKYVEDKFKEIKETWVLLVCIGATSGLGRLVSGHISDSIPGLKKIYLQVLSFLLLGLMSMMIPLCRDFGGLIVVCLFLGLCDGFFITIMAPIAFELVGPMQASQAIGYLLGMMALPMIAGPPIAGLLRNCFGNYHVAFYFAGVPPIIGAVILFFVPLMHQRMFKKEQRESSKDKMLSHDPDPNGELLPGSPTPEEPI

[2] = target: T1, MCT8; assay: Inhibition of uptake of labeled T4 and T3 in MCT8 cRNA-injected oocytes by putative competitors; assay type: cell-based; set-up: the stop codon of MCT8 was removed by performing PCR using the same sense primer as above; expressed in transfected cells; host or cells: Xenopus laevis oocytes injected with cRNA transcribed from pGEM-HeJuel
Procedure: (§1) Oocytes were isolated and allowed to recover overnight at 18 C in modified Barth's solution containing 20 IU/ml penicillin and 20 gg/ml streptomycin as described before (23). […] Uninjected or water injected oocytes were used as controls.
Transport measurements in oocytes—Oocytes were washed and preincubated at 18 C in standard uptake solution (100 mM NaCl, 2 mM KCl, 1 mM CaCl2, 1 mM MgCl2, 10 mM HEPES, and 10 mM Tris, pH 7.5). […] The possible Na^+ dependence of transport was tested by preincubation and incubation in Na^+-free uptake solution in which NaCl was replaced by choline chloride. The influence of the temperature on the uptake rate was tested by the incubation of oocytes with uptake solutions at different temperatures between 4 and 37 C. […] The incubation was stopped by aspiration of the medium, and oocytes were washed 4 times at 4 C with standard uptake solution containing 0.1% BSA.

[3] = target: T1, MCT8; assay: Transport (uptake) of radioactive ligands by MCT8 expressed in X. laevis oocytes; assay type: cell-based; set-up: the stop codon of MCT8 was removed by performing PCR using the same sense primer as above; expressed in transfected cells; host or cells: Xenopus laevis oocytes injected with cRNA transcribed from pGEM-HeJuel
Procedure: Xenopus oocytes were isolated and injected with 4.6 ng rat MCTS cRNA. After 3 days, groups of 10 injected or uninjected oocytes were incubated for 60 mm at 25 C with 10 nM radioactive iodothyronines in 0.1 ml medium. Uptake of iodothyronines was determined as previously described (18).
as §1
Transport measurements in oocytes—Oocytes were washed and preincubated at 18 C in standard uptake solution (100 mM NaCl, 2 mM KCl, 1 mM CaCl2, 1 mM MgCl2, 10 mM HEPES, and 10 mM Tris, pH 7.5). Usually, transport was tested by incubation of groups of 5-10 oocytes for 2-60 mm at 25 C with 10 nM [1251]iodothyronines or 10 μM [3H]amino acids in 0.1 ml standard uptake solution. The possible Na^+ dependence of transport was tested by preincubation and incubation in Na^+-free uptake solution in which NaCl was replaced by choline chloride. The influence of the temperature on the uptake rate was tested by the incubation of oocytes with uptake solutions at different temperatures between 4 and 37 C. […] The incubation was stopped by aspiration of the medium, and oocytes were washed 4 times at 4 C with standard uptake solution containing 0.1% BSA.

[4] = target: T2, rat MCT1 (Rattus norvegicus, UniProt P53987); details: data not shown
T2 sequence (P53987 1-494): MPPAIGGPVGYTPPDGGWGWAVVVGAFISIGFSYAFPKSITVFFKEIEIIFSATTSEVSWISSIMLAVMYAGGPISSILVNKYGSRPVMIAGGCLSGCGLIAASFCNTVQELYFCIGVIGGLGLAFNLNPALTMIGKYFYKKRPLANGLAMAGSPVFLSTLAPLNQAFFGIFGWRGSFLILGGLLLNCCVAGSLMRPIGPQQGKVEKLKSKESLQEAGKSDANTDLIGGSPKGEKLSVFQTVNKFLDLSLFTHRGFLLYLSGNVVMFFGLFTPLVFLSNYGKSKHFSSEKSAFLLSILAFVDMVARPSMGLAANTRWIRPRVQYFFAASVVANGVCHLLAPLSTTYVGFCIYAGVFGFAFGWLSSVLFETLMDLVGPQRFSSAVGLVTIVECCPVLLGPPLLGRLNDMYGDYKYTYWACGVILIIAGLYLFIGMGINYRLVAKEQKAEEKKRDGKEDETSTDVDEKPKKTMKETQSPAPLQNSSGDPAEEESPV

[5] = target: T1, MCT8; assay: Transport kinetics of MCT8-mediated iodothyronine uptake in oocytes (Michaelis-Menten); set-up: dose or concentration left out as unconfirmed; details: net transport
Procedure: Apparent Km values were calculated by fitting the plot of uptake rate (v) versus ligand concentration (5) to the Michaelis Menten equation: v=Vmax/(1+Km/S), wherein Vmax is the maximum uptake rate, and Km the Michaelis constant. Calculations were performed using the Slide Write Plus program version 5.01 (Advanced Graphics Software).

SMILES: N[C@@H](Cc1cc(I)c(Oc2cc(I)c(O)c(I)c2)c(I)c1)C(=O)O [T4, 3,3′,5,5′-tetraiodothyronine]
- Increase in transport at lowest amount of MCT8 cRNA [1]: 7.3 fold
- inhibition at 10 µM ([2]; labeled T4 10 nm, inhibitor 10 μM, MCT8 cRNA-injected oocytes, read-out: % inhibition ± SEM of uptake of T4): 69 ± 7%
- inhibition at 10 µM ([2]; read-out: % inhibition ± SEM of uptake of T3): 26 ± 7%
- Inhibition of labeled T4 and T3 uptake by MCT8 (in words) ([2]; unlabeled competitor, taurocholate and probenecid data not shown): potently inhibited
- Substrate specificity: transport by MCT8 (in words) ([3]; 10 nM iodothyronines or amino acids, MCT8 cRNA-injected vs uninjected oocytes): rapid uptake
- Uptake into oocytes at 4 C (in words) ([3]; 10 nM, 2 min, 4 C, marked increases at 15, 25 and 37 C): significant uptake
- Na+ dependence of transport by MCT8 ([3]; NaCl replaced by choline chloride): modest but consistent inhibition
- Increase in initial uptake compared with uninjected oocytes ([3]; oocytes injected with 4.6 ng MCT8 cRNA, 10 nM ligand, 25 C): ~10 fold
- Transport in rat MCT1 cRNA-injected oocytes compared to control oocytes (in words) [4]: no additional uptake
- Saturability of transport by MCT8 [5]: saturable
